From patent US20020122768A1, “Stable radiopharmaceutical compositions and methods for preparation thereof” (priority 2000, published 2002)

How the values were obtained:
[1] = Solution stability of ^177Lu-C at −78° C., RCP by radio-HPLC; assay type: physicochemical; conditions: for RCP (%) t = 0 / RCP (%) t = 3 days / RCP (%) t = 7 days / RCP (%) change: ^177Lu-C prepared using 2 mg GA; for RCP (%) t = 0 / RCP (%) t = 3 days / RCP (%) t = 7 days: degassed, second stabilizer (20 mg AA, 20 mg DSA, 10 mg 2,3,4-THBA, 10 mg 3,4,5-THBA) added post-labeling; for RCP (%) change: second stabilizer added post-labeling, t = 0 to 7 days; for stabilization compared with AA and DSA: ^177Lu-C, second stabilizer
Method: The integrity of a radiopharmaceutical is measured by the radiochemical purity (RCP) of the radiolabeled compound using ITLC or more preferably HPLC. The advantage of using HPLC is that radio-impurities caused by radiolytic degradation can be separated from the radiopharmaceutical under optimized chromatographic conditions. […] The radiopharmaceutical compositions of this invention are effective in maintaining the long-term stability of samples that have been frozen, thawed, and re-tested periodically for 7 days.
The initial RCP of a radiopharmaceutical is largely dependent on radiolabeling conditions such as pH, heating temperature and time. Once a radiopharmaceutical is prepared in high yield, the stability of the radiopharmaceutical composition is measured by the` RCP change of the radiopharmaceutical over a certain period of time. For comparison purposes, sodium gentisate or sodium ascorbate was often used as the reference since they have been used in various radiopharmaceutical formulations.
HPLC method 3 used a HP-1100 HPLC system with a UV/visible detector (λ=220 nm), an IN-US radio-detector, and a Zorbax C18 column (4.6 mm×250 mm, 80 Å pore size). The flow rate was 1 mL/min with a gradient mobile phase starting from 90% solvent A (0.025 M ammonium acetate buffer, pH 6.8) and 10% solvent B (acetonitrile) at 0 min to 88% solvent A and 12% solvent B at 18 min, followed by an isocratic wash using 40% of solvent A and 60% solvent B from 19 to 25 min.
The ITLC method used Gelman Sciences silica-gel ITLC paper strips and 1:1 mixture of acetone and saline as eluant. By this method, the radiolabeled compounds migrate to the solvent front while [^90Y]/^177Lu]colloid and [^90Y]/^177Lu]acetate remain at the origin.
(§1) The 0.5 M ammonium acetate buffer (pH 8.0) was first degassed under vacuum for 1-2 min. COMPOUND C and gentisic acid (sodium salt, GA) were dissolved in the degassed buffer to give a concentration of 100 μg/mL for COMPOUND C and 2 mg/mL for GA. The resulting solution was immediately degassed under vacuum for another 1-2 min. To a clean sealed 5 mL vial was added 1.0 mL of the degassed 0.5 M ammonium acetate buffer (pH 8.0) containing 100 μg COMPOUND C and 2 mg GA. The solution was degassed again under vacuum. Upon addition of ˜20 μL of ^177LuCl3 solution (˜20 mCi) in 0.05 N HCl, the reaction mixture was heated at 100° C. for 5 min. After cooling to room temperature, a sample of the resulting solution was analyzed by HPLC (Method 3, injection volume=5 μL) and ITLC. […] To the solution above was added 0.5 mL of sodium ascorbate solution (40 mg/mL in 0.5 M ammonium acetate buffer, pH=7.4). The resulting mixture was then kept in a dry-ice box (−78° C.) for 7 days. Samples were analyzed at t=0, 3 and 7 days.
as §1, with “COMPOUND” for “The 0.5 M ammonium acetate buffer (pH 8.0) was first degassed under vacuum for 1-2 min. COMPOUND”, “1.0 μL” for “1.0 mL”, “of 2,3,4-THBA” for “of sodium ascorbate”, “solution (20” for “solution (40”
COMPOUND C and gentisic acid (sodium salt, GA) were dissolved in the degassed buffer to give a concentration of 100 μg/mL for COMPOUND C and 2 mg/mL for GA. The resulting solution was immediately degassed under vacuum for another 1-2 min. […]

[2] = Solution stability of ^90Y-A at room temperature, RCP by radio-HPLC; assay type: physicochemical; conditions: for RCP (%) change: ^90Y-A, t = 0 h to last time point
Method: The advantage of using HPLC is that radio-impurities caused by radiolytic degradation can be separated from the radiopharmaceutical under optimized chromatographic conditions.
The initial RCP of a radiopharmaceutical is largely dependent on radiolabeling conditions such as pH, heating temperature and time. Once a radiopharmaceutical is prepared in high yield, the stability of the radiopharmaceutical composition is measured by the` RCP change of the radiopharmaceutical over a certain period of time.
Analytical Methods. HPLC method 1 used a HP-1100 HPLC system with a UV/visible detector (λ=220 nm), an IN-US radio-detector, and a Zorbax C18 column (4.6 mm×250 mm, 80 Å pore size).
The ITLC method used Gelman Sciences silica-gel ITLC paper strips and 1:1 mixture of acetone and saline as eluant.
(§2) The reaction mixture was heated at 100° C. for 10 min. A sample of the resulting solution was first diluted 20-fold with 2 mM DTPA solution (pH=5), and was then analyzed by HPLC (Method 1, injection volume=1-2 μL) and ITLC. […] The resulting solution was kept at room temperature for 6 days.
as §2, §2
The reaction mixture was heated at 100° C. for 10 min. A sample of the resulting solution was first diluted 20-fold with 2 mM DTPA solution (pH=5), and was then analyzed by HPLC (Method 1, injection volume 1-2 μL) and ITLC. […] The resulting solution was kept at room temperature for 7 days.
(§3) The reaction mixture was heated at 100° C. for 10 min. A sample of the resulting solution was first diluted 20-fold with 2 mM DTPA solution (pH=5), and was then analyzed by HPLC (Method 1, injection volume=1-2 μL) and ITLC. […] The resulting solution was kept at room temperature for 7 days.
as §3, §3

[3] = ^90Y-A (~20 mCi), 10 mg stabilizer, room temperature
[4] = 10 mg stabilizer, room temperature
[5] = ^90Y-A (~20 mCi), 2 mg stabilizer, room temperature

Row | RCP (%) t = 0 [1] | RCP (%) t = 3 days [1] | RCP (%) t = 7 days [1] | RCP (%) change [1] | RCP (%) t = 0 h [2, 3] | RCP (%) t = 24 h [2, 3] | RCP (%) t = 72 h [2, 3] | RCP (%) t = 148 h [2, 3] | RCP (%) change [2, 4] | stabilization compared with AA and DSA [1] | RCP (%) t = 0 h [2, 5] | RCP (%) t = 24 h [2, 5] | RCP (%) t = 48 h [2, 5] | RCP (%) t = 120 h [2, 5] | RCP (%) t = 144 h [2, 5] | stabilization compared with GA ([2]; ^90Y-A at room temperature, 2 mg stabilizer) | Compound
1 | 97.4% | 95.9% | 93.0% | 4.4% | 92.2% | 89.3% | 82.8% | 80.5% | 11.7% |  |  |  |  |  |  |  | 2,4-disulfonatobenzeneamine [DSA]
2 | 97.4% | 96.5% | 95.4% | 2.0% |  |  |  |  |  | better stabilization |  |  |  |  |  |  | O=C(O)c1ccc(O)c(O)c1O [2,3,4-THBA, 2,3,4-trihydroxybenzoic acid]
3 | 97.2% | 96.7% | 95.0% | 2.2% | 93.3% | 92.4% | 88% | 79.5% | 13.8% | better stabilization | 95.3% | 89.3% | 80.6% | 74.3% | 73.4% | better stabilizers than GA | O=C(O)c1cc(O)c(O)c(O)c1 [3,4,5-THBA, 3,4,5-trihydroxybenzoic acid]
